Laboratory results from patent publication US8394362B2, “Gem difluorinated C-glycopeptides, their preparation and their use for the preservation of biological materials and/or in cryosugery” (priority 2004, dated 2013).
Where two headings read alike, the source gives them in different places.

How the values were obtained:
[1] = system: HEK 293 cells; experiment: Preservation of HEK 293 kidney cells at low temperatures (Trypan blue cell count); type: cell-based
Protocol: The cells were then diluted to 75,000 cells/mL. Subsequently they were distributed over 6 plates with six 3 mL-wells per plate. This concentration is a good compromise between a concentration sufficiently low to prevent cell death by autocytotoxicity and sufficiently high to permit cell sampling and counting without any pre-concentration likely to reduce their survival. Each plate had two control wells not containing product 15, two wells with concentrations of product 15 adjusted to 0.01 mg/mL, and two others with 0.1 mg/mL. Each plate was then incubated at the following temperatures: 4° C., 2° C., 0° C., −2° C., −4° C., and −20° C. Each well was subsequently sampled at the following incubation times: 2, 8, and 22 hours.

[2] = system: erythrocytes; experiment: Preservation of erythrocytes: haemolysis at different temperatures; type: cell-based, human
Protocol: The death of erythrocytes can be ascertained by rupture of the plasma membrane. This phenomenon is called haemolysis. Detection of haemolysis is the chief tool used in this experiment to determine the effect of product 15 at different temperatures on the preservation of erythrocytes. Blood sampling→Aliquots→Addition of AAGP (compound 15)→Various temperatures→Observation of haemolysis Product 15 was tested at concentrations of 0 mg/mL, 0.1 mg/mL, 1.0 mg/mL at temperatures of 3, 0, −3, −5, −10, −15, −23, −78° C. From a sample of human blood in a borosilicate heparinized tube, microtubes of 275 μL were filled to full capacity. One third of the microtubes were completed with 2.75 μL of product 15 (10 mg/mL in H2O), and one third of the microtubes were completed with 27.5 μL of product 15 (10 mg/mL in H2O). The blood was divided among the tubes to full capacity to prevent air contact as much as possible. […] The microtubes were frozen on a microtube support and the experiment was conducted using a slow-freeze apparatus at −78° C., whilst thawing was always conducted at room temperature on the microtube rack. After thawing, the microtubes were delicately homogenized by inverting a few times and a sample of erythrocytes was taken. […] Co is the initial Ery count • Cexp is the experimental Ery count Materials

[3] = system: blood platelets; experiment: Preservation of blood platelets: platelet clustering over 21 days; type: cell-based
Protocol: The purpose is to test product 15 on the preservation of blood platelets to improve current protocols which only allow their preservation for 5 days. The test was conducted at four different temperatures 22° C., 15° C., 4° C. and finally 0° C. Platelet follow-up lasted 21 days to examine platelet clustering. Clustering is one of the first and most definitive indicators of platelet degradation. During their degradation, the platelets become active, lose their morphology, become fibrous, form clusters and finally degenerate. A platelet count is made but the result is rather more based on the extent of clustering.

[4] = system: H9c2(2-1) cells; type: cell-based, rat
Protocol: The test was conducted on rat heart myoblasts to consider application of these compounds for the preservation of organs such as the heart for subsequent transplant.
Another test was conducted on myoblasts at temperatures of 3° C. and −3° C. The purpose of the experiment this time was to increase the concentrations of glycoproteins 15 and 30 equimolar fashion (the molecular weight of the dimer being 2× greater than that of the monomer). The increase in concentration was 2.5 mg/mL for monomer 15 and 5 mg/mL for dimer 30. The temperatures were chosen over a range frequently used for the preservation of cells and tissues. The idea being subsequently to continue this experiment directly on tissues.

[5] = system: CCD-27Sk fetal fibroblast skin cells
Description: […] Materials

[6] = system: adult primary skin fibroblasts; experiment: Protection of adult primary skin fibroblasts in culture medium; type: cell-based; details: 15 mg/mL, after six days, culture media
Protocol: This test was extended to adult primary fibroblasts.
For adult fibroblasts, a culture medium (rich in factors) is used,
The concentration of product 15 is 15 mg/mL.

[7] = system: embryonic fibroblasts; details: 15 mg/mL; 1 mM H2O2; 37° C.; after 10 hours; serum-free medium with 0.5 mM EDTA
[8] = system: H9c2(2-1) cells; type: cell-based, rat; remark: listed apart in the source
[9] = 0.1 mg/mL, 40 min, −78° C. with slow cooling
[10] = 0.1 mg/mL, 2 h, 3, 0, −3, −5 and −10° C.
[11] = 0.1 mg/mL, 4 h, 3, 0, −3, −5 and −10° C.
[12] = 0.1 mg/mL, 9 h, 3, 0, −3, −5 and −10° C.
[13] = 0.1 mg/mL, 24 h, 3, 0, −3, −5 and −10° C.
[14] = 1.0 mg/mL, 40 min, −78° C. with slow cooling
[15] = 1.0 mg/mL, 2 h, 3, 0, −3, −5 and −10° C.
[16] = 1.0 mg/mL, 4 h, 3, 0, −3, −5 and −10° C.
[17] = 1.0 mg/mL, 9 h, 3, 0, −3, −5 and −10° C.
[18] = 1.0 mg/mL, 24 h, 3, 0, −3, −5 and −10° C.

Question: What does the source list for `C[C@H](NC(=O)[C@H](C)NC(=O)[C@@H](N)CCCCNC(=O)C(F)(F)C1(O)O[C@H](CO)[C@H](O)[C@H](O)[C@H]1O)C(=O)O` (stereo partly drawn) [product 15]?
Answer: cell survival compared with negative control ([1]; 0.01 mg/mL): does not appear to improve cell survival; cell survival rate compared with negative control ([1]; 0.10 mg/mL, five of six temperatures (4, 2, 0, −2, −4, −20° C.), 2, 8, 22 h): led to the best cell survival rates even if the improvement remained low; cell appearance and Trypan blue uptake after thawing ([1]; −20° C., after two hours): maintained the appearance of spherical retractile cells and did not absorb Trypan blue; cells remaining after re-incubation ([1]; −20° C., eight hours' incubation, both concentrations (0.01 and 0.1 mg/mL)): complete disappearance of all cells; % Haemolysis [2, 9]: 36%; % erythrocytes [2, 9]: 64%; % Ery [2, 10]: 100%; % Haemolysis [2, 10]: 0%; % Ery ([2]; 0.1 mg/mL, 2 h, −15° C.): 73%; % Haemolysis ([2]; 0.1 mg/mL, 2 h, −15° C.): 27%; Number of erythrocytes ([2]; 0.1 mg/mL, 2 h, −15° C.): 90; % Ery [2, 11]: 100%; % Haemolysis [2, 11]: 0%; % Ery ([2]; 0.1 mg/mL, 4 h, −15° C.): 0%; % Haemolysis ([2]; 0.1 mg/mL, 4 h, −15° C.): 100%; Number of erythrocytes ([2]; 0.1 mg/mL, 4 h, −15° C.): 0; % Ery [2, 12]: 100%; % Haemolysis [2, 12]: 0%; % Ery ([2]; 0.1 mg/mL, 9 h, −15° C.): 0%; % Haemolysis ([2]; 0.1 mg/mL, 9 h, −15° C.): 100%; Number of erythrocytes ([2]; 0.1 mg/mL, 9 h, −15° C.): 0; % Ery [2, 13]: 100%; % Haemolysis [2, 13]: 0%; % Haemolysis [2, 14]: 97%; % erythrocytes [2, 14]: 3%; % Ery [2, 15]: 100%; % Haemolysis [2, 15]: 0%; % Ery ([2]; 1.0 mg/mL, 2 h, −15° C.): 98%; % Haemolysis ([2]; 1.0 mg/mL, 2 h, −15° C.): 2%; Number of erythrocytes ([2]; 1.0 mg/mL, 2 h, −15° C.): 120; % Ery [2, 16]: 100%; % Haemolysis [2, 16]: 0%; % Ery ([2]; 1.0 mg/mL, 4 h, −15° C.): 100%; % Haemolysis ([2]; 1.0 mg/mL, 4 h, −15° C.): 0%; Number of erythrocytes ([2]; 1.0 mg/mL, 4 h, −15° C.): 133; % Ery [2, 17]: 100%; % Haemolysis [2, 17]: 0%; % Ery ([2]; 1.0 mg/mL, 9 h, −15° C.): 98%; % Haemolysis ([2]; 1.0 mg/mL, 9 h, −15° C.): 2%; Number of erythrocytes ([2]; 1.0 mg/mL, 9 h, −15° C.): 121; % Ery [2, 18]: 100%; % Haemolysis [2, 18]: 0%; protection of erythrocytes ([2]; temperature below −15° C., 1.0 mg/mL): no protection is observed; haemolysis ([2]; temperature range of 2 to −10° C., 0 to 24 hours, with or without product): no haemolysis; protection of erythrocytes ([2]; −15° C.): really protects the erythrocytes; protection of erythrocytes ([2]; −15° C., 4 and 9 hours, 1.0 mg/mL): complete protection; protection of erythrocytes ([2]; −15° C., after two hours, 0.1 mg/mL): partly protects the erythrocytes; protection of erythrocytes ([2]; −15° C., after two hours, 1.0 mg/mL): completely; relation of % haemolysis to concentration ([2]; −78° C. slow cooling, freezing point, after 40 minutes): direct correlation is observed between % haemolysis and concentrations of product 15; platelet clustering ([3]; 0° C., with or without glycoprotein): no clustering is seen; platelet clustering ([3]; 4° C., irrespective of concentrations): almost no clustering is observed; platelet clustering compared with control ([3]; 15° C., over time): a greater increase in clustering is observed in the control than in the samples containing the compound; time up to which samples do not show any platelet clusters ([3]; 22° C., 1 mg/mL and 4 mg/mL): up to 7 days; platelet clustering ([3]; 22° C., 4 mg/mL (most concentrated samples)): the least clustering; platelet clustering compared with control ([3]; 22° C., 13, 17 and 21 days): true inhibition of platelet clustering; survival rate relative to control (control 19%) ([4]; 3° C. (FIG. 42 as printed), after 8 hours, monomer […], dimer 5 mg/mL): more than twice as high; cells preserved ([4]; after 16 hours, FIGS. 41 and 42, monomer […], dimer 5 mg/mL): approximately 90%; myoblasts still living ([4]; after 24 hours, FIGS. 41 and 42, monomer […], dimer 5 mg/mL): ~65%; efficacy versus concentration ([4]; −3° C. (FIG. 43), 1 mg/mL versus 2.5 / 5 mg/mL): greater efficacy at higher concentrations; preservation of skin fibroblasts, overall ([5]; 5 mg/mL (8.6 mM), 22, 3, −3, −20° C.): better preservation in the presence of product 15 at all temperatures except at −20 °C; survival rates over time compared with control ([5]; 5 mg/mL, 22° C., 3° C., −3° C. (FIGS. 48 to 50)): much better survival rates; cell preservation with or without product ([5]; 5 mg/mL, 8 hours (FIG. 44), entire temperature range): no difference is found; cell survival rate compared with control ([5]; 5 mg/mL, 20 hours (FIG. 46)): better cell survival rate with monomer 15 than with the control; survival rate ([5]; 5 mg/mL, 20 hours (FIG. 46), −3° C.): 50%; cell preservation compared with control ([5]; 5 mg/mL, after 12 hours, 22° C. and −3° C.): better preservation; cell survival compared with control ([5]; 5 mg/mL, after 30 hours (FIG. 47), especially at 3° C.): distinct improvement; survival ([5]; 5 mg/mL, after 30 hours (FIG. 47), −3° C.): 70%; cell fate on freezing ([5]; 5 mg/mL, −20° C.): death of the cells after thawing; survival ([5]; 10 mg/mL, 15° C., after four days, low-serum media): 46%; cells preserved ([5]; 10 mg/mL, 37° C., after four days, low-serum media): approximately 100%; cell morphology ([5]; 10 mg/mL, Day 1 (FIG. 55)): preserve a spherical shape and maintain their integrity; cell survival rate versus concentration ([5]; 3 and −3° C., 20 and 34 hours, up to 15 mg/mL): improves cell survival rate; protective effect on cells ([5]; 3 and −3° C., concentrations up to 15 mg/mL, after 34 hours): ~100%; survival ([6]; 3° C.): 100%; cells protected ([6]; 15° C.): 100%; survival [7]: approximately 80%; number of living cells over incubation time ([8]; 1 mg/mL, −3° C. (FIG. 40)): slow decrease over incubation time in the number of living cells; dependence of cell survival rate on concentration ([8]; 0.1, 0.5 and 1 mg/mL): better results at 1 mg/mL than at 0.1 and 0.5 mg/mL; survival percentage over time ([8]; main experiment, 1 mg/mL, 4° C., up to 45 hours): better survival percentage over the entire duration of the experiment; survival ([8]; main experiment, 1 mg/mL, 22° C., after 45 hours): 65%; protective effect, monomer versus dimer ([8]; main experiment, 1 mg/mL, after 16 hours, 4° C.): gives the best results; cell survival compared with control ([8]; main experiment, 1 mg/mL, up to 8 hours, 22, 4, −3 and −10° C.): no significant difference; survival compared with control ([8]; main experiment, 1 mg/mL, −10° C.): slight improvement; survival percentage ([8]; preliminary experiment, 2° C. as printed (method −2° C.), 20 hours, 0.1 mg/mL): identical to the control
